Assays:
[1] = biological target: T1, Alpha-1B adrenergic receptor (Rattus norvegicus, UniProt P15823); assay: DRUGMATRIX: Alpha-1B adrenergic receptor radioligand binding (ligand: prazosin); assay type: cell membranes, Wistar, Liver, Membrane; details: Not Active = under 50% inhibition at 10 µM; for Ki: read-out: Ki
T1 sequence (P15823 whole entry): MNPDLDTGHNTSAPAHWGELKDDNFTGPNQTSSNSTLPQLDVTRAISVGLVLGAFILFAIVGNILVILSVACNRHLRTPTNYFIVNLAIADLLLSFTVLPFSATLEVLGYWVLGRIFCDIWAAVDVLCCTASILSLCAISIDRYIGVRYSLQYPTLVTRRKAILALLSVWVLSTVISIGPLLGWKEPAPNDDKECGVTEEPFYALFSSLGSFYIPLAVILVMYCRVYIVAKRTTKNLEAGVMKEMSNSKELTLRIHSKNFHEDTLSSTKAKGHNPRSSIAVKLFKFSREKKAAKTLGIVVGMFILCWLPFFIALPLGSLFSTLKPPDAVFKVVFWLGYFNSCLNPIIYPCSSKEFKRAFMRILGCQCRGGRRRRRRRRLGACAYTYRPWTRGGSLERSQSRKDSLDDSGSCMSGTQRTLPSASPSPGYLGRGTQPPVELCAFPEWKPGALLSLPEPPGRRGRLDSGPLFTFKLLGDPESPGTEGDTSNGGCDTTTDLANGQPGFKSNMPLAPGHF

[2] = DRUGMATRIX: Phosphodiesterase PDE4 enzyme inhibition (substrate: [3H]cAMP + cAMP); details: u-937, Not Active = under 50% inhibition at 10 µM
Substance-K receptor = biological target: T2, Substance-K receptor (Homo sapiens, UniProt P21452); assay type: cell membranes, CHO, Membrane; details: cho; also: in other assays of this panel Not Active means under 50% inhibition at 10 µM
T2 sequence (P21452 whole entry): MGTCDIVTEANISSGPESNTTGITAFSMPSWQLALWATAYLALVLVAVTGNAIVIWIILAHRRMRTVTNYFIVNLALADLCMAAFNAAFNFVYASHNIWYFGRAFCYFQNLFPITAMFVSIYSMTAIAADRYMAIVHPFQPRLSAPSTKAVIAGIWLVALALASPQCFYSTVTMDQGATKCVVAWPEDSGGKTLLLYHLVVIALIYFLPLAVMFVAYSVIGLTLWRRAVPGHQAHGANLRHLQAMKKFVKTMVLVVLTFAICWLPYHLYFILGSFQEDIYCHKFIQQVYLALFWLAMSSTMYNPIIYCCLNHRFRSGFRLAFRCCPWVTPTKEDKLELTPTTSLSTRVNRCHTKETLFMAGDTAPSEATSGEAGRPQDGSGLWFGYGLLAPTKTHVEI

[3] = biological target: Protein phosphatase 3 catalytic subunit alpha (Homo sapiens, UniProt Q08209); design: species or system Escherichia coli;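 also: inhibition of calcineurin (PP2B) enzyme activity, measured with DiFMUP as the substrate; in other assays of this panel Not Active means under 50% inhibition at 10 µM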
Adenosine receptor A1 = biological target: T3, Adenosine receptor A1 (Homo sapiens, UniProt P30542); assay type: cell membranes, CHO, Membrane;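 also: radioligand binding assay at the adenosine A1 receptor, with DPCPX serving as the labelled ligand; in other assays of this panel Not Active means under 50% inhibition at 10 µM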
T3 sequence (P30542 whole entry): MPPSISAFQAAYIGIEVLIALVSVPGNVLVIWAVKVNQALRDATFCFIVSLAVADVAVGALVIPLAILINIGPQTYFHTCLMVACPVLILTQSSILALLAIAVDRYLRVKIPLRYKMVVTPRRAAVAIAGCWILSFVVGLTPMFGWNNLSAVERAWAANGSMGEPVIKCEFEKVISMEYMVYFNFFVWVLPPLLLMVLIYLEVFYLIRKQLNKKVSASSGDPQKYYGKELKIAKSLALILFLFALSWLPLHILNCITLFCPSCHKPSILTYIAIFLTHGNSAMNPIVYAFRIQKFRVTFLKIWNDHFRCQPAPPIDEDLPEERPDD

[4] = DRUGMATRIX: Tumor Necrosis Factor (TNF), Non-Selective radioligand binding (ligand: [125I] TNF-alpha); assay type: cell membranes, Membrane; details: u-937; Not Active = under 50% inhibition at 10 µM

Compound | IC50 [1] | IC50 [2] | Ki [2] | IC50 (Substance-K receptor) | IC50 [3] | IC50 (Adenosine receptor A1; cho) | IC50 [4] | Ki [4] | IC50 ([1]; read-out: IC50) | Ki [1] | IC50 ([2]; read-out: IC50) | IC50 (Adenosine receptor A1; read-out: IC50) | Ki (Adenosine receptor A1; read-out: Ki)
O=C(O)CC(O)(CC(=O)O)C(=O)O [CITRIC ACID] | Not Active | Not Active | Not Active | Not Active | Not Active | Not Active | Not Active | Not Active | – | – | – | – | –
CC(C)NCC(O)c1ccccc1Cl (stereo not given) [CLORPRENALINE] | Not Active | Not Active | Not Active | Not Active | Not Active | Not Active | Not Active | Not Active | – | – | – | – | –
CN1CCN(C(c2ccccc2)c2ccccc2)CC1 [CYCLIZINE] | – | Not Active | Not Active | Not Active | Not Active | Not Active | Not Active | Not Active | 2490 nM | 1380 nM | – | – | –
CN1C[C@@H]2C[C@H]1CN2c1cc2c(cc1F)c(=O)c(C(=O)O)cn2C1CC1 [DANOFLOXACIN] | Not Active | Not Active | Not Active | Not Active | Not Active | Not Active | Not Active | Not Active | – | – | – | – | –
COc1cccc2c1C(=O)c1c(O)c3c(c(O)c1C2=O)C[C@@](O)(C(C)=O)C[C@@H]3O[C@H]1C[C@H](N)[C@H](O)[C@H](C)O1 [DAUNORUBICIN] | Not Active | Not Active | Not Active | Not Active | Not Active | Not Active | Not Active | Not Active | – | – | – | – | –
O=C(O)c1cc(-c2ccc(F)cc2F)ccc1O [DIFLUNISAL] | Not Active | Not Active | Not Active | Not Active | Not Active | Not Active | Not Active | Not Active | – | – | – | – | –
C[S+](C)[O-] [DIMETHYL SULFOXIDE] | Not Active | Not Active | Not Active | Not Active | Not Active | Not Active | Not Active | Not Active | – | – | – | – | –
CC1=NN(c2ccccc2)C(=O)C1 [EDARAVONE] | Not Active | Not Active | Not Active | Not Active | Not Active | Not Active | Not Active | Not Active | – | – | – | – | –
CC(C)C[C@H]1C(=O)N2CCC[C@H]2[C@]2(O)O[C@](NC(=O)[C@@H]3C=C4c5cccc6[nH]cc(c56)C[C@H]4N(C)C3)(C(C)C)C(=O)N12 [ERGOCRYPTINE] | – | Not Active | Not Active | Not Active | Not Active | Not Active | Not Active | Not Active | 14 nM | 7.94 nM | – | – | –
C[C@]12CC[C@@H]3c4ccc(O)cc4CC[C@H]3[C@@H]1C[C@@H](O)[C@@H]2O [ESTRIOL] | Not Active | Not Active | Not Active | Not Active | Not Active | Not Active | Not Active | Not Active | – | – | – | – | –
C#C[C@]1(O)CC[C@H]2[C@@H]3CCC4=CC(=O)CC[C@]4(C)[C@H]3CC[C@@]21C [ETHISTERONE] | Not Active | Not Active | Not Active | Not Active | Not Active | Not Active | Not Active | Not Active | – | – | – | – | –
CC(O)(P(=O)(O)O)P(=O)(O)O [ETIDRONIC ACID] | Not Active | Not Active | Not Active | Not Active | Not Active | Not Active | Not Active | Not Active | – | – | – | – | –
CC(C)(C(=O)O)c1ccc(C(O)CCCN2CCC(C(O)(c3ccccc3)c3ccccc3)CC2)cc1 (stereo not given) [FEXOFENADINE] | Not Active | Not Active | Not Active | Not Active | Not Active | Not Active | Not Active | Not Active | – | – | – | – | –
CN1CCN(c2c(F)cc3c(=O)c(C(=O)O)cn(CCF)c3c2F)CC1 [FLEROXACIN] | Not Active | Not Active | Not Active | Not Active | Not Active | Not Active | Not Active | Not Active | – | – | – | – | –
O=c1[nH]c(=O)n([C@H]2C[C@H](O)[C@@H](CO)O2)cc1F [FLOXURIDINE] | Not Active | Not Active | Not Active | Not Active | Not Active | Not Active | Not Active | Not Active | – | – | – | – | –
COC(=O)Nc1nc2cc(C(=O)c3ccc(F)cc3)ccc2[nH]1 [FLUBENDAZOLE] | Not Active | Not Active | Not Active | Not Active | Not Active | Not Active | Not Active | Not Active | – | – | – | – | –
CC(=O)OCC(=O)[C@@]1(O)CC[C@H]2[C@@H]3CCC4=CC(=O)CC[C@]4(C)[C@@]3(F)[C@@H](O)C[C@@]21C [FLUDROCORTISONE ACETATE] | Not Active | Not Active | Not Active | Not Active | Not Active | Not Active | Not Active | Not Active | – | – | – | – | –
CCOC(=O)c1ncn2c1CN(C)C(=O)c1cc(F)ccc1-2 [FLUMAZENIL] | Not Active | Not Active | Not Active | Not Active | Not Active | Not Active | Not Active | Not Active | – | – | – | – | –
CC(=O)OCC(=O)[C@@]12OC(C)(C)O[C@@H]1C[C@H]1[C@@H]3C[C@H](F)C4=CC(=O)C=C[C@]4(C)[C@@]3(F)[C@@H](O)C[C@@]12C [FLUOCINONIDE] | Not Active | Not Active | Not Active | Not Active | Not Active | Not Active | Not Active | Not Active | – | – | – | – | –
O=C(O)P(=O)(O)O [FOSCARNET] | Not Active | Not Active | Not Active | Not Active | Not Active | Not Active | Not Active | Not Active | – | – | – | – | –
Cc1ccc(C)c(OCCCC(C)(C)C(=O)O)c1 [GEMFIBROZIL] | Not Active | Not Active | Not Active | Not Active | Not Active | Not Active | Not Active | Not Active | – | – | – | – | –
O=c1c(-c2ccc(O)cc2)coc2cc(O)cc(O)c12 [GENISTEIN] | Not Active | – | – | Not Active | Not Active | – | Not Active | Not Active | – | – | 10900 nM | 19900 nM | 11600 nM
CCC1=C(C)CN(C(=O)NCCc2ccc(S(=O)(=O)NC(=O)N[C@H]3CC[C@H](C)CC3)cc2)C1=O [GLIMEPIRIDE] | Not Active | Not Active | Not Active | Not Active | Not Active | Not Active | Not Active | Not Active | – | – | – | – | –
Nc1cc(-c2ccncc2)c[nH]c1=O [INAMRINONE] | Not Active | Not Active | Not Active | Not Active | Not Active | Not Active | Not Active | Not Active | – | – | – | – | –
CCCCC1=NC2(CCCC2)C(=O)N1Cc1ccc(-c2ccccc2-c2nnn[nH]2)cc1 [IRBESARTAN] | Not Active | Not Active | Not Active | Not Active | Not Active | Not Active | Not Active | Not Active | – | – | – | – | –
CN1CCC(=C2c3ccccc3CC(=O)c3sccc32)CC1 [KETOTIFEN] | Not Active | Not Active | Not Active | Not Active | Not Active | Not Active | Not Active | Not Active | – | – | – | – | –

Source: ChEMBL document CHEMBL1909046, “DrugMatrix in vitro pharmacology data”
